According to ChEMBL document CHEMBL3853300, “Synthesis of α-santonin derived acetyl santonous acid triazole derivatives and their bioevaluation for T and B-cell proliferation” (Eur J Med Chem, 2016):

Legend:
[1] = Immunosuppressive activity in Balb/c mouse B cells assessed as inhibition of LPS-induced cell proliferation at 10 uM after 48 hrs by MTT assay relative to control; assay type: functional
T-cell = assay: Immunosuppressive activity in Balb/c mouse T cells assessed as inhibition of ConA-induced cell proliferation after 48 hrs by MTT assay relative to control; assay type: functional, cell-based
B = assay: Immunosuppressive activity in Balb/c mouse B cells assessed as inhibition of LPS-induced cell proliferation after 48 hrs by MTT assay relative to control; assay type: functional, cell-based
Mus musculus [2] = species on record: Mus musculus; assay: Cytotoxicity against Balb/c mouse T cells assessed as decrease in cell viability at 10 uM after 48 hrs by MTT assay; assay type: toxicity, cell-based
Mus musculus [3] = species on record: Mus musculus; assay: Cytotoxicity against Balb/c mouse B cells assessed as decrease in cell viability at 100 uM after 48 hrs by MTT assay; assay type: toxicity, cell-based
[4] = Immunosuppressive activity in Balb/c mouse B cells assessed as inhibition of LPS-induced cell proliferation at 1 uM after 48 hrs by MTT assay relative to control; assay type: functional
Mus musculus [5] = species on record: Mus musculus; assay: Cytotoxicity against Balb/c mouse T cells assessed as decrease in cell viability at 1 uM after 48 hrs by MTT assay; assay type: toxicity, cell-based
[6] = Immunosuppressive activity in Balb/c mouse T cells assessed as inhibition of ConA-induced cell proliferation at 1 uM after 48 hrs by MTT assay relative to control; assay type: functional
[7] = Immunosuppressive activity in Balb/c mouse B cells assessed as inhibition of LPS-induced cell proliferation at 100 uM after 48 hrs by MTT assay relative to control; assay type: functional
[8] = Immunosuppressive activity in Balb/c mouse T cells assessed as inhibition of ConA-induced cell proliferation at 100 uM after 48 hrs by MTT assay relative to control; assay type: functional
[9] = Immunosuppressive activity in Balb/c mouse T cells assessed as inhibition of ConA-induced cell proliferation at 10 uM after 48 hrs by MTT assay relative to control; assay type: functional
Mus musculus [10] = species on record: Mus musculus; assay: Cytotoxicity against Balb/c mouse T cells assessed as decrease in cell viability at 100 uM after 48 hrs by MTT assay; assay type: toxicity, cell-based
Mus musculus [11] = species on record: Mus musculus; assay: Cytotoxicity against Balb/c mouse B cells assessed as decrease in cell viability at 1 uM after 48 hrs by MTT assay; assay type: toxicity, cell-based
Mus musculus [12] = species on record: Mus musculus; assay: Cytotoxicity against Balb/c mouse B cells assessed as decrease in cell viability at 10 uM after 48 hrs by MTT assay; assay type: toxicity, cell-based

Row | SMILES | inhibition at 10 µM [1] [%] | inhibition (T-cell) | inhibition (B) | Activity (Mus musculus [2]) | Activity (Mus musculus [3]) | inhibition at 1 µM [4] [%] | Activity (Mus musculus [5]) | inhibition at 1 µM [6] [%] | inhibition at 100 µM [7] [%] | inhibition at 100 µM [8] [%] | inhibition at 10 µM [9] [%] | Activity (Mus musculus [10]) | Activity (Mus musculus [11]) | Activity (Mus musculus [12])
1 | CC(=O)Oc1cc(C)c2c(c1C)C[C@H]([C@@H](C)C(=O)OCc1cn(-c3cc(I)ccc3C)nn1)CC2 | 34.6 | Dose-dependent effect | Dose-dependent effect | Toxic | Toxic | 39 | Non-Toxic | 34.5 | 28 | 26.5 | 38.2 | Toxic | Non-Toxic | Toxic
2 | CC(=O)Oc1cc(C)c2c(c1C)C[C@H]([C@@H](C)C(=O)OCc1cn(-c3cccnc3Cl)nn1)CC2 | 15.4 | Dose-dependent effect | Dose-dependent effect | Toxic | Non-Toxic | 30.8 | Toxic | 5.88 | 22.5 | 17.6 | 25 | Non-Toxic | Toxic | Toxic
3 | CCCCn1cc(COC(=O)[C@H](C)[C@@H]2CCc3c(C)cc(OC(C)=O)c(C)c3C2)nn1 | 29.9 | Dose-dependent effect | Dose-dependent effect | Toxic | Toxic | 31.2 | Non-Toxic | 21.4 | 44.2 | 41.3 | 24 | Toxic | Non-Toxic | Toxic
4 | CC(=O)Oc1cc(C)c2c(c1C)C[C@H]([C@@H](C)C(=O)OCc1cn(-c3ccc(O)cc3)nn1)CC2 | 26.3 | Dose-dependent effect | Dose-dependent effect | Toxic | Toxic | 36.6 | Non-Toxic | 33.3 | 29.7 | 17.6 | 5.55 | Toxic | Non-Toxic | Toxic
5 | CC(=O)Nc1ccc(-n2cc(COC(=O)[C@H](C)[C@@H]3CCc4c(C)cc(OC(C)=O)c(C)c4C3)nn2)cc1 | 31.3 | Dose-dependent effect | Dose-dependent effect | Toxic | Toxic | 24.2 | Toxic | 22.1 | 39 | 33.8 | 50 | Toxic | Toxic | Toxic
6 | CCCCCn1cc(COC(=O)[C@H](C)[C@@H]2CCc3c(C)cc(OC(C)=O)c(C)c3C2)nn1 | 41.9 | Dose-dependent effect | Dose-dependent effect | Toxic | Toxic | 42.4 | Toxic | 15.6 | 43.1 | 30.6 | 27.6 | Toxic | Toxic | Toxic
7 | CC(=O)Oc1cc(C)c2c(c1C)C[C@H]([C@@H](C)C(=O)OCc1cn(-c3ccccc3F)nn1)CC2 | 34.6 | Dose-dependent effect | Dose-dependent effect | Non-Toxic | Non-Toxic | 50.5 | Non-Toxic | 53.7 | 39.6 | 5.88 | 11.8 | Non-Toxic | Non-Toxic | Non-Toxic
